In BigSolDB 2.1:

O=C(NC(Cc1cc(=O)[nH]c2ccccc12)C(=O)O)c1ccc(Cl)cc1 (stereo not given)
solubility (mole fraction)
Details	278.15 K	283.15 K	288.15 K	293.15 K	298.15 K	303.15 K	308.15 K	313.15 K	318.15 K
in ethanol	6.26e-05	6.92e-05	7.65e-05	8.61e-05	9.66e-05	0.000107	0.000118	0.000131	0.000143
in isopropanol	2.41e-05	3.02e-05	3.87e-05	4.8e-05	5.92e-05	7.31e-05	8.91e-05	0.000107	0.000129
in n-propanol	4.25e-05	5.08e-05	6e-05	7.03e-05	8.1e-05	9.38e-05	0.000107	0.000123	0.00014
in propylene glycol	0.000182	0.000192	0.000207	0.000225	0.000247	0.000269	0.000293	0.000319	0.00035
in water	3.46e-07	4.26e-07	5.29e-07	6.84e-07	8.68e-07	1.08e-06	1.3e-06	1.56e-06	1.87e-06
